Assays:
[1] = Precipitation from a solution of Insecticide A in Solvent A on continued agitation at room temperature (Example 1, comparative); assay type: physicochemical
Protocol: A solution of Insecticide A (pyripyropene derivative I) in Solvent A was prepared by slowly adding 4.98 parts by weight of Insecticide A to well agitated 63.92 parts by weight of Solvent A at room temperature. It typically took 1 to 3 hours for complete dissolution depending on the addition rate of Insecticide A and on the mode of agitation. After the agitation had been continued for additional approximately 12 hours the clear solution started to turn cloudy, indicating the precipitation of Solvent A solvate crystals of Insecticide A. Microscopy analysis confirmed that the precipitation was indeed crystalline.

[2] = Solvate crystal growth in seeded solutions of Insecticide A in 2-heptanone/Solvent A mixtures (Example 2); assay type: physicochemical; details: seeded with Solvent A solvate crystals, 22° C., one month
Protocol: Four solutions of 2-heptanone in Solvent A were prepared by mixing 1 part by weight of 2-heptanone with 2, 4, 6 and 8 parts by weight, respectively, of solvent A. Then Insecticide A was dissolved in each of these solutions by slowly adding 4.98 parts by weight of Insecticide A to well agitated 63.92 parts by weight of the respective solution at room temperature. It typically took 1 to 3 hours for complete dissolution. After Insecticide A was fully dissolved, each of the four samples was seeded with the Solvent A solvate crystals of Insecticide A prepared in Example 1. Then the four samples were kept at 22° C. for one month and afterwards were visually inspected for solvate crystal growth.

C[C@]1(COC(=O)C2CC2)[C@@H]2C[C@H](O)[C@@]3(C)Oc4cc(-c5cccnc5)oc(=O)c4[C@H](O)[C@@H]3[C@@]2(C)CC[C@@H]1OC(=O)C1CC1 [Insecticide A]
microscopy analysis of the precipitation ([1]; 4.98 parts Insecticide A in 63.92 parts Solvent A): crystalline | additional agitation time after which the clear solution started to turn cloudy (precipitation of Solvent A solvate crystals) ([1]; 4.98 parts by weight Insecticide A in 63.92 parts by weight Solvent A, after complete dissolution): approximately 12 hours | solvate crystal growth (visual inspection) ([2]; 2-heptanone to Solvent A ratio 1:2): no crystal growth was observed | solvate crystal growth (visual inspection) ([2]; 2-heptanone to Solvent A ratio 1:4): no crystal growth was observed | solvate crystal growth (visual inspection) ([2]; 2-heptanone to Solvent A ratio 1:6): crystal growth was detected | solvate crystal growth (visual inspection) ([2]; 2-heptanone to Solvent A ratio 1:8): crystal growth was detected

Reference: patent publication US20150031535A1, “Liquid concentrate formulation containing a pyripyropene insecticide III” (BASF SE, priority 2012, published 2015)
